Measurements: patent US20060211606A1, “Peptides” (priority 2005, published 2006)
*1 amine or outer side, *2 acyl side, *3 side chain or, on linkers, in order; H or OH if unused. [ ]: non-standard residue; d: D form. PEG (Jeffamine) = not defined here; Suc = O=C(CCC(=O)[*:2])[*:1]

How the values were obtained:
[1] = test system: rat organotypic hippocampal cultures; assay: TBH oxidative stress in rat organotypic hippocampal cultures, PI-stained cell death; assay type: cell-based; details: for time for which the neuroprotective effect was observed: rat hippocampal slices after TBH challenge; for protection against TBH-induced cell death: rat hippocampal slices, 24 hours, peptide 10 ng/ml as printed
Method: Hippocampal slices were prepared from 7-10 days old Wistar rats according to the method of Stoppini et al (1991) with minor modifications according to Sarnowska (2002). Briefly, rats were anaesthetised with Vetbutal, ice-cooled and decapitated. Brains were quickly removed to ice-cold working solution pH 7.2: 96% of HBSS/HEPES-(Ca2^+ and Mg2^+ free) containing 2 mmol/L L-glutamine, 5 mg/ml glucose, 1% amphotericine B, 0.4% penicillin-streptomycin. Hippocampi were separated and cut into 400 μm slices using McIlwain tissue chopper. […] Four selected slices were settled on each membrane. Slices were cultivated for two weeks at 32° C. in 5% CO2 atmosphere of 100% humidity. The viability of the slices was checked daily under the light microscopy and evaluated additionally on the day of experiment by propidium iodide staining and observed under fluorescent microscope (Zeiss Axiovert 25) with MC-10095 camera (Carl Zeiss Jena GmbH) in order to record initial PI uptake (Sarnowska, 2002).
Oxidative stress was induced after 14 days in culture by adding 30 mM TBH ([…]) for 3 hours. After that time the slices were transferred to the fresh culture medium. Resulting cell death was assessed 24 and 48 h after the beginning of the experiment.
In order to investigate a pathway in which the MGF acts, a specific anti-IGF-1 receptor (AB-1) blocking antibody (Oncogene) was included in the medium 1 hour before the slices were exposed to TBH and MGF or IGF-1 peptide. The concentration of the antibody (1000 ng/ml) was used according to the manufacturer's recommendation.
To obtain detailed images of the slices, a confocal laser scanning microscope (Zeiss LSM 510) was used. A helium-neon laser (543 nm) was used for the excitation of propidium iodide (PI). […] Quantitative measurement of tissue deterioration was performed using image analyser KS 300 (Carl Zeiss Jena GmbH).
Cell damage was quantified on fluorescence images of PI-stained cultures 24 and 48 hours after TBH challenge. The relative extent of cell death was calculated from each standardized CA1 region as follows: % of dead cells=(experimental fluorescent intensity (FI)−background FI)/(maximal FI−background FI)×100, where maximal FI was obtained by killing all cells with exposure to 100 mM glutamate.
All the measurements were repeated for 5 independent culture preparations and 8 slices were used for each experimental condition. Statistical significance of the differences between the results was calculated using one-way Anova followed by Dunnet's test, (GraphPad Prism 3.02).
Rat brain slices were isolated following induction of localized damage by TBH (tert-butyl hydroperoxide) as discussed above. The resulting cell death in treated and non-treated brain slices was determined. […]

[2] = test system: primary cultures derived from congenital muscular dystrophy (CMD); assay: Desmin positive cell proliferation, primary cultures from congenital muscular dystrophy (CMD); assay type: cell-based, human; details: for desmin positive cells as percentage of total cells: peptide alone, 10 ng/ml, mean±s.d.
From the text: Human primary muscle cell cultures were isolated as previously described [Lewis et al., 2000; Sinanan et al., 2004]. Briefly, following informed consent, craniofacial (masseter) muscle biopsies were obtained from healthy adult and CMD patients during elective surgery at the Eastman and Middlesex Hospitals, London, UK. Human lower limb (vastus lateralis) muscle samples were obtained from consenting, adult healthy, FSHD and ALS patients by needle biopsy under local anaesthesia at the Royal Free Hospital, London, UK. Biopsies were pooled from several patients with the same disorder to obtain sufficient cell numbers in the primary cultures. These were washed with antibiotic (penicillin, 100 U/ml; streptomycin, 100 μg/ml; fungizone, 2.5 μg/ml; Invitrogen) supplemented DMEM (high glucose; Invitrogen), scissor-minced and tissue fragments plated into 0.2% gelatin-coated (Sigma-Aldrich) T150 cm^2 culture flasks (Helena Biosciences). Explant cultures were incubated in serum-containing Growth Media (sGM), composed of DMEM, 20% FCS (PAA Laboratories), penicillin (100 U/ml) and streptomycin ([…]) (Invitrogen), and maintained at 37° C. in humidified 95% air with 5% CO2. The first wave of migration of mononuclear cells from the explant was designated the […]-wave and this population was used throughout this study. Migratory human muscle cell were enzymatically harvested using trypsin-EDTA (Invitrogen) and subcultured in sGM until 70-80% confluency. Passage number x (Px), was defined as the xth sequential harvest of subconfluent cells. All experiments were performed using P3-5 cohorts. The expanded cells were then stored under cryogenic conditions until they were used in the experiments described below. At least 6 runs were made for each of the treatments used for each diseased muscle culture as well as for the two types of healthy muscle.
Assessment of the number of myogenic precursors was performed as described previously (Sinanan et al., 2004). Cells were re-plated on gelatin-coated (0.2%) 13 mm coverslips at an initial density of 4.5×10^3 cells cm^−2. […]
At the appropriate time-points, cells were fixed with methanol for 10 min (−20° C.), followed by detergent permeabilization with 0.5% Triton-X100 for 10-15 min. […] Cell-associated fluorescence and morphology, were visualized by epi-fluorescence and Leica Modulation Contrast (LMC) microscopy respectively, using an inverted Leica DMIRB microscope equipped with Leica FW4000 image processing software. For the proliferation assay, all blue and green fluorescent positive cells were counted in a field. […]

[3] = test system: tibialis anterior muscle of non-dystrophic mice; assay: Intramuscular injection into tibialis anterior of non-dystrophic mice, muscle strength; assay type: in vivo; details: i.m. twice weekly 25 μl containing 17 μg, within a few weeks

Row | Substance | time for which the neuroprotective effect was observed [1] | protection against TBH-induced cell death [1] | desmin positive cells as percentage of total cells [2] | increase in muscle strength [3] | desmin positive cells as percentage of total cells, IGF-I added ([2]; stabilised peptide in combination with IGF-I) | desmin positive cells as percentage of total cells, plus anti-IGF-I receptor antibody Ab-1 ([2]; stabilised peptide plus Ab-1)
1 | IGF-I: IGF-I receptor binding domain encoded by Exons 3 and 4, common to all splice variants, approximately 70 amino acids [reference compound] | up to 24 hours | 72% | 13.2±1.7% | – | – | –
2 | stabilised peptide: SEQ ID NO: 15 with D-Arginine at positions 14 and 15, N-terminus attached to PEG (Jeffamine) via succinic acid bridge, amidated at C-terminus ({PEG (Jeffamine)-Suc}-YQPPSTNKNTKSQ[dR][dR]KGSTFEEHK-NH2; reading uncertain) | ≥ 48 h | 85% | 17.5±1.6% | more than 25% | 13.1±1.2% | 16.7±1.8%
